From US20150342961A1, “USE OF PROSTAGLANDIN E1 (PGE1) AND MISOPROSTOL FOR TREATING CHRONIC MYELOGENOUS/MYELOID LEUKEMIA (CML)” (priority 2014, published 2015)
Entries after “also recorded” stand apart in the source; their conditions may differ. Structures can show the parent of a compound that is named as a salt.

Experiments:
CML = test: Screen of drugs simulating Tcf1 and Lef1 elimination, effect on CML
Text: (§1) In view of the Inventor's discovery, the Inventor set out to screen for drugs that would simulate the effect of eliminating Tcf1 and Lef1 for use in treatment of CML. Inventor experimented with the following drugs which are known to at least partly simulate the effect of eliminating Tcf1 and Lef1: Carbimazole, Cinchonine, Gibberellic acid, Hippeastrine hydrobromide, Dimaprit dihydrochloride, Spaglumic acid, and Vigabatrin. […] Inventor further experimented with Trichostatin A and Vorinostat. […] Inventor thereafter turned to prostaglandins for treating CML.

CML mouse model = test: CML mouse model, survival of primary recipients after BMT; type: in vivo; details: for survival rate at about day 35 / time mice survived after bone marrow transplantation (BMT) before survival declined: 2.5 mg/kg daily, days 8-36 post-BMT
Experimental: Bone marrow cells (BM) were isolated from donor mice, and HSCs were enriched and delivered the BCR-ABL gene using retroviral transduction. The BM cells were then transplanted into another group of recipient mice (called primary recipients here). The recipients will develop CML because the donor HSCs are transformed by BCR-ABL. On day 8 after BM transplantation (BMT), the primary recipients were treated with DMSO (the solvent to dissolve PGE1 or PGE2), PGE1, PGE2, Imatinib or both PGE1 and Imatinib. The survival of the recipients was monitored.
CML was established as in FIG. 5. During days 8-36 post-bone marrow transplantation (BMT), the recipients were treated daily with 2.5 mg/kg body weight PGE1 or PGE2, or the vehicle DMSO. Statistical significance was determined by log-rank test. Data are pooled results from 2 independent experiments with a total of 10 CML recipients tested under each condition.
CML was established as in FIG. 5. During days 8-80 post-BMT, the recipients were treated daily with Imatinib alone (100 mg/kg body weight, b.i.d.) or in combination with PGE1 (2.5 mg/kg body weight). Statistical significance was determined by log-rank test. Data are pooled results from 2 independent experiments with a total of 9-10 CML recipients tested under each condition.
(§2) CML animals were treated with the solvent dimethyl sulfoxide (DMSO) as a negative control (See FIG. 6).

LSCs [1] = test: LSCs from treated primary recipients transplanted into secondary recipients, propagation of CML; type: in vivo, mouse; details: secondary recipients untreated
Experimental: The CML model was established in the primary recipients as in FIG. 5. The recipients were then treated with Imatinib, PGE1 or Misoprostol alone, or in combination during days 8-21 post-BMT. The LSCs were isolated from the BM of the primary recipients and transplanted into another set of secondary recipients. The ability of LSCs to propagate CML in the secondary recipients were tracked.
Note that the LSCs were only treated with PGE1 or Misoprostol in the primary recipients for 2 weeks, and none of the secondary recipients were treated.
as §2

LSCs [2] = test: Screen of drugs simulating Tcf1 and Lef1 elimination, effect on LSCs
Text: as §1

HSCs = test system: HSCs
Text: as §1

CCOC(=O)n1ccn(C)c1=S [Carbimazole]
effect on CML (CML): no effect on CML

CCCCC[C@H](O)/C=C/[C@H]1[C@H](O)CC(=O)[C@@H]1CCCCCCC(=O)O [PGE1, Prostaglandin E1]
survival rate at about day 35 (CML mouse model; CML mice): ~50% | time mice survived after bone marrow transplantation (BMT) before survival declined (CML mouse model; CML mice): approximately 17 days | greater survival rate compared to the PGE2 mice (CML mouse model; CML mice, about day 35): ~400% | ability of treated LSCs to propagate CML in secondary recipients (LSCs [1]; two-week treatment in primary recipients): superior to Imatinib treatment; also recorded: much less efficient in propagating CML

CC(/C=C/C(=O)NO)=C\[C@@H](C)C(=O)c1ccc(N(C)C)cc1 [Trichostatin A]
effect on LSCs (LSCs [2]): strong effect on LSCs

Cc1ccc(NC(=O)c2ccc(CN3CCN(C)CC3)cc2)cc1Nc1nccc(-c2cccnc2)n1 [Imatinib]
effect of Imatinib or co-therapy on survival of CML recipients (CML mouse model; Imatinib 100 mg/kg b.i.d. alone or with PGE1 2.5 mg/kg, days 8-80 post-BMT): substantially extend the survival; also recorded: extended the survival of CML mice | day after BMT at which all CML mice had died (CML mouse model; Imatinib 100 mg/kg b.i.d., days 8-80 post-BMT): ~62 days | day after secondary BMT at which secondary recipients died (LSCs [1]; LSCs treated in primary recipients days 8-21 post-BMT): ~40 days

CN1CCC2=C[C@H](O)[C@H]3OC(=O)c4cc5c(cc4[C@H]3[C@@H]21)OCO5 [Hippeastrine hydrobromide]
effect on CML (CML): no effect on CML

C=C[C@H]1C[N@@]2CC[C@H]1C[C@@H]2[C@@H](O)c1ccnc2ccccc12 [Cinchonine]
effect on CML (CML): no effect on CML

C=CC(N)CCC(=O)O (stereo not drawn) [Vigabatrin]
effect on CML (CML): no effect on CML

CCCCC[C@H](O)/C=C/[C@H]1[C@H](O)CC(=O)[C@@H]1C/C=C\CCCC(=O)O [PGE2, Prostaglandin E2]
survival rate at about day 35 (CML mouse model; CML mice): about 10% | time mice survived after bone marrow transplantation (BMT) before survival declined (CML mouse model; CML mice): approximately 17 days

O=C(CCCCCCC(=O)Nc1ccccc1)NO [Vorinostat]
effect on LSCs (LSCs [2]): strong effect on LSCs | toxicity to HSCs (HSCs): toxic to HSCs

CN(C)CCCSC(=N)N [Dimaprit dihydrochloride]
effect on CML (CML): no effect on CML

C=C1C[C@]23C[C@@]1(O)CC[C@H]2[C@@]12C=C[C@H](O)[C@@](C)(C(=O)O1)[C@H]2[C@@H]3C(=O)O [Gibberellic acid]
effect on CML (CML): no effect on CML
